From patent US20140308317A1, “Polymeric Compounds And Methods Of Making And Using The Same” (CELLCEUTIX CORPORATION, priority 2012, published 2014)
Values after ≈ are worked out from the molar mass of the structure shown.

Experiments:
E. Coli ATCC 25922 = test: Minimum Inhibitory Concentration (MIC), modified microbroth dilution; assay type: cell-based; details: E. coli (25922); overnight incubation (18 hours)
HepG2, HB-8065 = test: Cytotoxicity colorimetric (tetrazolium) assay; assay type: cell-based, human; details: HepG2 cells; one hour with compound in serum-free media
Protocol: (§1) Cytotoxicity of the compounds was evaluated in a colorimetric assay using a transformed human liver cell line (HepG2, HB-8065) and an embryonic mouse cell line (NIH/3T3 cells, CRL-1658). This assay measures the bioreduction of a novel tetrazolium compound to a soluble formazan product by viable cells. HepG2 cells were seeded in 96 well plates at 2×10^4 cells/well in MEM medium with 10% fetal bovine serum (FBS) 24 hours prior to use. NIH/3T3 cells were seeded in 96 well plates at 2×10^4 cells/well in DMEM medium with 10% bovine calf serum (BCS) 24 hours prior to use. Cell monolayers were rinsed in serum-free media and incubated for one hour with compounds in serum-free media. After incubation, the media is replaced with serum supplemented media and live cells were measured using the Cell Titer 96 Aqueous […] Assay kit (Promega, Madison, Wis.). EC50 values were determined using a four parameter logistic equation: Y=Bottom+(Top-Bottom)/(1+10̂((LogEC50−X)*HillSlope)).
(§2) Actual results from a representative cytotoxicity assay are shown below in Table 2. Data is expressed as EC50 in μg/mL.

[1] = system: Pseudomonas aeruginosa ATCC 10145; test: Minimum Inhibitory Concentration (MIC), modified microbroth dilution; assay type: cell-based; details: P. aeruginosa (10145); overnight incubation (18 hours)
[2] = system: Klebsiella pneumoniae ATCC 13883; test: as above; assay type: cell-based; details: K. pneumoniae (13883); overnight incubation (18 hours)
NIH/3T3 cells, CRL-1658 = test: Cytotoxicity colorimetric (tetrazolium) assay; assay type: cell-based, mouse; details: NIH/3T3 cells; one hour with compound in serum-free media
Protocol: as §1, §2

[3] = system: Enterococcus faecalis ATCC 29212; test: Minimum Inhibitory Concentration (MIC), modified microbroth dilution; assay type: cell-based; details: E. faecalis (29212); overnight incubation (18 hours)
[4] = system: Staphylococcus aureus ATCC 27660; test: as above; assay type: cell-based; details: S. aureus (27660); overnight incubation (18 hours)

| Structure (SMILES) | MIC50 E. coli (E. Coli ATCC 25922) [µg/mL] | MIC50 P. Aeruginosa [1] [µg/mL] | MIC50 K. Pnuemnoiae [2] [µg/mL] | MIC50 E. faecalis [3] [µg/mL] | MIC50 S. aureus [4] [µg/mL] | EC50 HepG2 (cytotoxicity) (HepG2, HB-8065) [µg/mL] | EC50 NIH 3T3 (cytotoxicity) (NIH/3T3 cells, CRL-1658) [µg/mL] |
| --- | --- | --- | --- | --- | --- | --- | --- |
| NCCN(CCN)Cc1ccc(F)c(-c2ccc3sc4ccc(-c5cc(CN(CCN)CCN)ccc5F)cc4c3c2)c1 [Compound 180] | 1.56 (≈ 2.59 µM) | 3.13 (≈ 5.19 µM) | 1.56 (≈ 2.59 µM) | 3.13 (≈ 5.19 µM) | 0.098 (≈ 0.163 µM) | 104 (≈ 173 µM) | 43.1 (≈ 71.5 µM) |
| NCCCN(CCCN)Cc1cccc(-c2ccc3sc4ccc(-c5cccc(CN(CCCN)CCCN)c5)cc4c3c2)c1 [Compound 181] | 3.13 (≈ 5.02 µM) | 6.25 (≈ 10 µM) | 6.25 (≈ 10 µM) | 6.25 (≈ 10 µM) | 0.195 (≈ 0.313 µM) | 212 (≈ 340 µM) | 83.1 (≈ 133 µM) |
| Nc1cccc(-c2ccc3[nH]c4ccc(-c5cccc(N)c5)cc4c3c2)c1 [Compound 177] | 1.56 (≈ 4.46 µM) | 12.5 (≈ 35.8 µM) | >50 | >50 | 1.56 (≈ 4.46 µM) | >1000 | 487 (≈ 1390 µM) |
| NCCc1cccc(-c2ccc3c(c2)C(=O)c2cc(-c4cccc(CCN)c4)ccc2CC3)c1 [Compound 153] | 6.25 (≈ 14 µM) | 25 (≈ 56 µM) | 6.25 (≈ 14 µM) | 3.13 (≈ 7.01 µM) | 1.56 (≈ 3.49 µM) | 80.6 (≈ 180 µM) | 53.3 (≈ 119 µM) |
| NCCCOc1cc(OCCCN)cc(-c2cc(-c3cc(-c4cc(OCCCN)cc(OCCCN)c4)cc(C(F)(F)F)c3)cc(C(F)(F)F)c2)c1 [Compound 146] | 1.56 to 3.13 | 6.25 (≈ 8.51 µM) | 1.56 to 3.13 | 0.78 to 1.56 | 1.56 (≈ 2.12 µM) | 58.6 (≈ 79.8 µM) | 35.82 (≈ 48.7 µM) |
| NCCc1cccc(-c2cc3c(c(-c4cccc(CCN)c4)c2)CCc2ccccc2C3=O)c1 [Compound 152] | 3.13 (≈ 7.01 µM) | 25 (≈ 56 µM) | 6.25 (≈ 14 µM) | 3.13 (≈ 7.01 µM) | 1.56 (≈ 3.49 µM) | 27.5 (≈ 61.6 µM) | 20.9 (≈ 46.8 µM) |

Continued, in another order:

| MIC50 E. coli (E. Coli ATCC 25922) [µg/mL] | MIC50 P. Aeruginosa [1] [µg/mL] | MIC50 K. Pnuemnoiae [2] [µg/mL] | MIC50 E. faecalis [3] [µg/mL] | MIC50 S. aureus [4] [µg/mL] | Structure (SMILES) | EC50 HepG2 (cytotoxicity) (HepG2, HB-8065) [µg/mL] | EC50 NIH 3T3 (cytotoxicity) (NIH/3T3 cells, CRL-1658) [µg/mL] |
| --- | --- | --- | --- | --- | --- | --- | --- |
| 3.13 (≈ 5.52 µM) | 3.13 (≈ 5.52 µM) | 3.13 (≈ 5.52 µM) | 3.13 (≈ 5.52 µM) | 0.195 (≈ 0.344 µM) | NCCN(CCN)Cc1cccc(-c2ccc3sc4ccc(-c5cccc(CN(CCN)CCN)c5)cc4c3c2)c1 [Compound 174] | 171 (≈ 302 µM) | 149 (≈ 263 µM) |
| 1.56 (≈ 2.46 µM) | 3.13 (≈ 4.93 µM) | 1.56 (≈ 2.46 µM) | 0.78 (≈ 1.23 µM) | 0.39 (≈ 0.614 µM) | NCCCOc1cc(OCCCN)cc(-c2cc(F)cc(-c3cc(F)cc(-c4cc(OCCCN)cc(OCCCN)c4)c3)c2)c1 [Compound 148] | 244 (≈ 384 µM) | 53.77 (≈ 84.7 µM) |
| 25 (≈ 36.1 µM) | >50 | >50 | >50 | 3.13 (≈ 4.52 µM) | CCn1c2ccc(-c3cc(C(=O)NCCN)cc(C(=O)NCCN)c3)cc2c2cc(-c3cc(C(=O)NCCN)cc(C(=O)NCCN)c3)ccc21 [Compound 169] | 312 (≈ 451 µM) | 450 (≈ 650 µM) |
| 6.25 (≈ 8.06 µM) | 6.25 (≈ 8.06 µM) | 12.5 (≈ 16.1 µM) | 6.25 (≈ 8.06 µM) | 1.56 (≈ 2.01 µM) | NCCCOc1cc(-c2ccc3sc4ccc(-c5cc(OCCCN)c(OCCCN)c(OCCCN)c5)cc4c3c2)cc(OCCCN)c1OCCCN [Compound 184] | 100 (≈ 129 µM) | 57 (≈ 73.5 µM) |
